Reference: ChEMBL document CHEMBL1201862, “PubChem BioAssay data set” (2004)
Activity calls are given as the source filed them.

Assays:
[1] = blockade of melanocortin 4 receptor signaling – cell-based, plate reader, cherry pick, counter-screen for LGR2 antagonist project, dose response (AID 743444); assay type: functional;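 further: transfected HEK 293 cells stimulated with alpha-MSH peptide; potency of inhibitors of the alpha-MSH evoked signal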
[2] = blockers of bursicon-stimulated LGR2 cAMP reporter – cell-based, HEK293, CRE-luciferase reporter, cherry pick, set 2, dose response (AID 743343); assay type: functional;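 further: transfected cells were stimulated with diluted bursicon conditioned medium after compound addition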
HEK293 = test: EBV LMP1 TES2 canonical NF-kB signalling blockers – cell-based, HEK293, luciferase, cherry-pick, dose response (AID 588343); assay type: functional; settings: Homo sapiens
[3] = A549 cell cytotoxicity, dose response, cytotoxicity control, plate reader, cherry-pick, antagonist series (AID 743412); assay type: functional, cell-based
[4] = T. cruzi growth inhibition in host cells, dose response, cell-based, plate reader, dry powder, set 2 (AID 652275); assay type: functional
[5] = biological target: COUP transcription factor 2 (Homo sapiens, UniProt P24468); test: Luminescence-based cell-based high throughput dose response assay to identify inhibitors of COUP-TFII (NR2F2).; assay type: functional;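 further: HEK293 cells transiently cotransfected with COUP-TFII expression vector and reporter; luciferase reporter luminescence driven by COUP-TFII from the pX2-168 reporter plasmid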
[6] = biological target: Tyrosyl-DNA phosphodiesterase 2 (Homo sapiens, UniProt O95551); test: potency against TDP2 phosphodiesterase activity – biochemical, epi absorbance, IC50, dose response (AID 743297)
[7] = biological target: T1, Oxysterols receptor LXR-beta (Homo sapiens, UniProt P55055); assay type: functional, cell-based;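 further: agonist activity at LXR measured by a cell-based luminescence readout across a dose range, run as a counterscreen for daf-12 agonists; HEK293 cells with Gal4-LXR fusion and GAL4-driven luciferase reporter; potency for activation of Gal4-LXR reporter so compounds are agonists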
T1 sequence (P55055 whole entry): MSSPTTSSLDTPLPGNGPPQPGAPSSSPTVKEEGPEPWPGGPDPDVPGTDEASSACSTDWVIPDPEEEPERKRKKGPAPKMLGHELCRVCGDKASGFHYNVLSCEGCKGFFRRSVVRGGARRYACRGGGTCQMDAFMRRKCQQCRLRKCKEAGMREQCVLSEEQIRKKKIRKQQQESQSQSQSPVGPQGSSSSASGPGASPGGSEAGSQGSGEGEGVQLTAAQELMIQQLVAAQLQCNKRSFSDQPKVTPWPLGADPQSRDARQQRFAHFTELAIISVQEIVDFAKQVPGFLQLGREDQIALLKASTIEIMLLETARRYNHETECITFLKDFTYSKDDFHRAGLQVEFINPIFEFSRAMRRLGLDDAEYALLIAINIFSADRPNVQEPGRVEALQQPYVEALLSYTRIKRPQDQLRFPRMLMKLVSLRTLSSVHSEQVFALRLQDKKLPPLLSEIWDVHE

[8] = HGIII-sPLA2 enzyme inhibition potency – biochemical, QFRET, IC50, dose response (AID 743457);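 further: green fluorescence rise as the enzyme cleaves BODIPY PC-A2 in liposomes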
Albumin = Albumin (Bos taurus, UniProt P02769); test: Counterscreen for inhibitors of T-cell receptor (TCR)-CD3 interaction: Fluorescence-based biochemical high throughput dose response assay to identify inhibitors of T-cell receptor (TCR)-CD3 interaction using a TAMRA-labeled BSA probe.; assay type: functional
[9] = blockers of HIV-1 envelope-mediated cell-cell fusion – cherry-pick, dose response (AID 652057); assay type: functional, cell-based
[10] = reduced cellular PGC1a acetyl-lysine signal – cell-based, cherry-picked samples, dose response (AID 720514); assay type: functional;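 further: potency may reflect raised or lowered acetylation signal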
[11] = P. falciparum Dd2 growth inhibitors, dose response, SYBR Green, cherry-picked samples (AID 1159567); assay type: functional, cell-based
[12] = viability loss in CEM21 cells – cell-based, CellTiter-Glo luminescence, cherry-picked, cytotoxicity control for viral fusion inhibitor project, dose response (AID 652042); assay type: functional;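 further: potency for signal decrease meaning cytotoxicity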
[13] = OVCAR-3 cell viability loss – plate reader, dry powder samples, PAX8 inhibitor project, dose response (AID 743044); assay type: functional, cell-based
Paired box protein Pax-8 = Paired box protein Pax-8 (Homo sapiens, UniProt Q06710); test: PAX8 transcriptional activity inhibition in RMG-I – RMG-I cells, luciferase, cherry-pick, dose response (AID 687027); assay type: functional, cell-based;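 further: luciferase reporter driven by Pax8 target thyroperoxidase promoter measured by SteadyGlo luminescence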
[14] = OVCAR8 cell viability loss – plate reader, dry powder samples, PAX8 project, dose response (AID 743197); assay type: functional, cell-based; settings: OVCAR-8

COUP transcription factor 2, sequence (P24468 whole entry): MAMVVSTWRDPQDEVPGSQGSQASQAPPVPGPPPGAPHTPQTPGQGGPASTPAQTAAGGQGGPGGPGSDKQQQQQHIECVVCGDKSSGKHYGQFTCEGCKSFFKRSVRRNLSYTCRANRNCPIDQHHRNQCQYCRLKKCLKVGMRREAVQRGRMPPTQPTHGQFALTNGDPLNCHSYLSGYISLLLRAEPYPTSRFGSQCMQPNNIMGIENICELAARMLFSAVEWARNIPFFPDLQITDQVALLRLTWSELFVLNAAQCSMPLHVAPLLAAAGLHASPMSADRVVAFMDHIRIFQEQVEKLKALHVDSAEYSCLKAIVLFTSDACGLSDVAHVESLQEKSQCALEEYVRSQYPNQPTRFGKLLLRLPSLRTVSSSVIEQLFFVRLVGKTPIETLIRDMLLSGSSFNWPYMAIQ
Albumin, sequence (P02769 whole entry, the tested form may be a part): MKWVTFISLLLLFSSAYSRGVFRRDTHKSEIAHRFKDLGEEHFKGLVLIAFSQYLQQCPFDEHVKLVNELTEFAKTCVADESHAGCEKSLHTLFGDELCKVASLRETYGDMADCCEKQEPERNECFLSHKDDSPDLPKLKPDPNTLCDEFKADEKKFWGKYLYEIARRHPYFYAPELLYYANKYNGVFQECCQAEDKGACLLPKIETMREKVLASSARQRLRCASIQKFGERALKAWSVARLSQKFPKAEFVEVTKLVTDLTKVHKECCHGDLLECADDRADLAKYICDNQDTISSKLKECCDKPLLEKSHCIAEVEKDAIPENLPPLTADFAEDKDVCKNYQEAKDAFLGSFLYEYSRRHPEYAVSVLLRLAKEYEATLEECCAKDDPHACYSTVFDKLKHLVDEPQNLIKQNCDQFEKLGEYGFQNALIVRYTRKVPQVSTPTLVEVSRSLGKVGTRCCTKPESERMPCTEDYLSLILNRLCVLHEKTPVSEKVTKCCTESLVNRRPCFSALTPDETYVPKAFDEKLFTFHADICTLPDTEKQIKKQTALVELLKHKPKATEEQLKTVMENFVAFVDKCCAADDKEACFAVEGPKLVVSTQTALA
Paired box protein Pax-8, sequence (Q06710 whole entry): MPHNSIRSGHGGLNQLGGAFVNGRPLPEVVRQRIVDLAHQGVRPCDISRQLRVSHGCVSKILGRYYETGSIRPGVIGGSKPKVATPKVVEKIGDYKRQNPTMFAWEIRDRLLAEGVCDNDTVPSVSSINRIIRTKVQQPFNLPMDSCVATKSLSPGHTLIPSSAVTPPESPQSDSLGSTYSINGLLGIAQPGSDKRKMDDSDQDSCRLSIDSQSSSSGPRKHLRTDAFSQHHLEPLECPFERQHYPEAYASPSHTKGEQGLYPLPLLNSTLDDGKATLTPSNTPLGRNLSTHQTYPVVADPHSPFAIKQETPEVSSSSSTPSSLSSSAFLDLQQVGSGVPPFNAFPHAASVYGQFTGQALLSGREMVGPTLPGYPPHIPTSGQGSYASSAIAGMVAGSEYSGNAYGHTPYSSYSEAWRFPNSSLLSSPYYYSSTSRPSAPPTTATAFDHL
Tyrosyl-DNA phosphodiesterase 2, sequence (O95551 whole entry, the tested form may be a part): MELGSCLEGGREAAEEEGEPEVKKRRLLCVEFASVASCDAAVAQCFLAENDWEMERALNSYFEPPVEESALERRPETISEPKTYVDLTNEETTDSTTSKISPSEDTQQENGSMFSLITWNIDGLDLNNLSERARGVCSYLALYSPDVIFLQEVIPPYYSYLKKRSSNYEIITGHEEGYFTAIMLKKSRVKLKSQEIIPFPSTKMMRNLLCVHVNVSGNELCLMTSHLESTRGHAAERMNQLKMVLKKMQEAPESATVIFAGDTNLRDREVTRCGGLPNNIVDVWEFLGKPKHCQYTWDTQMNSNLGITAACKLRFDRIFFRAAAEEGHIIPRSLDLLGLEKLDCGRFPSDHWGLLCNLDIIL

With `O=C(Nc1ccc(N2CCOCC2)cc1)c1cnccn1` the AC50 [1] was 3.9 µM (active), the AC50 [2] was 4.37 µM (active) and the AC50 (HEK293) was 2.09 µM (active). The AC50 [3] was > 52 µM (inactive).
For `OC[C@H]1[C@H](c2ccc(-c3ccccc3)cc2)[C@@H]2CN(Cc3cncnc3)CCCCN12`, the AC50 [4] was 185 nM (active).
For `Cc1sc(NC(=O)CN2CCOCC2)nc1-c1ccc2c(c1)CCN2S(=O)(=O)c1ccccc1`, the IC50 [5] was 8.52 µM (active).
With `COc1cccc(-c2ccc([C@H]3[C@H](CO)N4CCCCN(CC5CCOCC5)C[C@@H]34)cc2)c1` the AC50 [4] was 1880 nM (active).
For `O=C(NC(=S)Nc1ccccc1N1CCCC1)c1ccco1`, the IC50 [6] was > 128 µM (inactive).
For `CCOc1ccc(-c2c(=O)n(O)c3ccccc3[n+]2[O-])cc1`, the EC50 [7] was > 67.5 µM (inactive).
For `Cc1ccccc1NC(=O)NNC(=O)c1ccc2ccccc2c1O`, the IC50 [8] was > 122 µM (inactive) and the IC50 (Albumin) was > 94.2 µM (inactive).
With `Cc1ccc(-c2ccc3c(c2)O[C@@H](CN(C)C(=O)C2CCCCC2)[C@H](C)CN([C@H](C)CO)S3(=O)=O)cc1` the AC50 [9] was 20.7 µM (active), the AC50 [10] was 15 µM (active) and the AC50 [11] was 3.07 µM (active). For the same compound, the AC50 [12] was 22 µM (active).
In the case of `CO[C@H]1CN(C)C(=O)c2cc(NC(=O)c3ccc(-c4ccccc4)cc3)ccc2OC[C@@H](C)NC[C@@H]1C`, the AC50 [13] is reported as 44.6 µM (active), the AC50 (Paired box protein Pax-8) is reported as 22.6 µM (active) and the AC50 [14] is reported as 58.4 µM (active).
